One may read the MIC as the lowest concentration that inhibits growth of the organism.

For the experiment, the system named is Mycobacterium tuberculosis. Description: Antimycobacterial activity against Mycobacterium tuberculosis H37Rv. To be noted: Mycobacterium tuberculosis, H37Rv; read-out: MIC. Format: functional.
Consider `c1cc2c[n+](c1)CCCCCCCCCCCCCCc1ccc[n+](c1)CCCCCCCCCCCCC2` [CYCLOSTELLETAMINES E], for which the MIC is 11 µg/mL. For the molecule `COc1cc(-c2ccc3c(c2)OCO3)nc2ccccc12` [GRAVEOLININE], the MIC came to 16 µg/mL.

For `O=C(O)CCCCCCCCCC(=O)C1=CCCC1` [ANTHELMINTHICINS A], the MIC amounted to 5.54 µM. In the case of `[C-]#[N+]C(C)(C)C[C@@H]1C[C@H](C)[C@H]2CC[C@H](C)[C@@]3([N+]#[C-])CCC(=C)[C@@H]1[C@H]23` [DIISOCYANOAMPHILECTENE], the MIC stood at 2 µg/mL. In the case of `NC1=N[C@@]23CCCN2C(=O)c2[nH]cc(Br)c2[C@@H]3N1` [MONOBROMOISOPHAKELLIN] it was 64 µg/mL. To `c1cc[n+]2c(c1)CCCCCCCCCCCCC[n+]1cccc(c1)CCCCCCCCCCCCC2` [CYCLOSTELLETAMINES C] belongs 4 µg/mL; to `COc1cc(/C=C/C(O)=C/C(=O)/C=C/c2ccc(O)cc2)ccc1O` [DEMETHOXYCURCUMIN], 200 µg/mL; to `CCOC(=O)/C=C/COc1ccc(/C=C/C(=O)/C=C(O)/C=C/c2ccc(OC/C=C/C(=O)OCC)c(OC)c2)cc1`, 7.18 µg/mL. As for `CC1(C)Oc2cc(O)c(C(=O)/C=C/c3ccccc3)c(O)c2CC1O` (configuration not stated), the MIC amounted to 0.05 µg/mL. For the molecule `COC1=CC(=O)c2cccc(O)c2C1=O`, the MIC came to 3.12 µg/mL.

Consider `O=C1C2=C(C(=O)c3c(O)cccc31)[C@]1(O)C[C@H]2C(=O)c2c(O)cccc21` [ENGELHARQUINONE], for which the MIC turned out to be 20 µg/mL.

Turning to `CC(=O)[C@]1(O)C(C)=C(C)C(=O)[C@@]12CC[C@H](CCC[C@H](C)CCC[C@H](C)CCCC(C)C)O2`, the MIC turned out to be 50 µg/mL. As for `COC1=CC(=O)c2c(O)cccc2C1=O`, the MIC is 30 µg/mL. In the case of `CC(C)=CCc1c(O)ccc(C(=O)/C=C/c2ccc(O)cc2)c1O` [ISOBAVACHALCONE] it was 18 µg/mL; in that of `[C-]#[N+][C@@]12CCC(=C)[C@H]3[C@H](CC(C)(C)NC(=O)CN4CCC4=O)C[C@H](C)[C@@H](CC[C@@H]1C)[C@@H]32` [MONAMPHILECTINE A], 15.3 µg/mL. Turning to `CCc1cc(C(N)=S)ccn1` [ETHIONAMIDE], the MIC stood at 18 µM. On to `c1cc2c[n+](c1)CCCCCCCCCCCCCc1ccc[n+](c1)CCCCCCCCCCCC2` [CYCLOSTELLETAMINES B], for which the minimum inhibitory concentration (MIC) worked out at 4 µg/mL. In the case of `c1cc2c[n+](c1)CCCCCCCCCCCCc1ccc[n+](c1)CCCCCCCCCCCC2` [CYCLOSTELLETAMINES A], the MIC came out at 32 µg/mL. For the molecule `CC(=O)O[C@H]1C2=C(C(=O)C(O)=C(C(C)C)C2=O)[C@@]2(C)CCCC(C)(C)[C@@H]2[C@@H]1O`, the MIC stood at 25 µg/mL. On to `CC1=C(C)C(=O)C(CC[C@](C)(O)CCC[C@H](C)CCC[C@H](C)CCCC(C)C)=C(C)C1=O`, for which the MIC was 25 µg/mL. `c1cc2c[n+](c1)CCCCCCCCCCCCCCc1ccc[n+](c1)CCCCCCCCCCCCCC2` [CYCLOSTELLETAMINES F]: the MIC was 8 µg/mL. Turning to `C/C(=C\CO)CCC[C@H](C)CCC[C@H](C)CCCC(C)C` [TRANS-PHYTOL], the MIC was determined as 12.5 µg/mL. To `C[C@H](C/C=C/C(C)(C)OO)[C@H]1CC[C@@]2(C)[C@@H]3CC[C@H]4C(C)(C)[C@@H](O)CC[C@@]45C[C@@]35CC[C@]12C` belongs 25 µg/mL; to `COc1cc2ccc(=O)oc2cc1O` [SCOPOLETIN], 42 µg/mL. In the case of `C=C(C)C(CC[C@@H](C)[C@H]1CC[C@@]2(C)[C@@H]3CC[C@H]4C(C)(C)[C@@H](O)CC[C@@]45C[C@@]35CC[C@]12C)OO` (some centres not stated), the MIC is 25 µg/mL.

In the case of `CCOC(=O)CCCCCCCCCCCC[C@@H]1C=CCC1` [ETHYL CHAULMOOGRATE], the MIC is 9.82 µM. In the case of `C=C(C)/C=C/[C@@]12C(=O)C=CC(=O)[C@@]13CC(C)=C[C@@H]2c1cc(O)ccc1O3` [EHRETIQUINONE] it was 25 µg/mL; in that of `Cl.Nc1ncc(C/C=C/NC(=O)c2cc(Br)c[nH]2)[nH]1` [HYMENIDINE], 6.1 µg/mL.

With `O=C(CCCCCCCC[C@H]1C=CCC1)OCC(O)CO` (some centres not stated) [ANTHELMINTHICINS B], the MIC was 16.7 µM. With `C=C[C@]1(C)C2=C3c4c([nH]c5cccc(c45)C(C)(C)[C@H]3C[C@H]1Cl)C(C)(C)C(C#N)=C2` [AMBIGUINE G NITRILE], the MIC was 53.7 µM.

For the molecule `CC(C)=CCc1c(O)ccc(C(=O)/C=C/c2cc(O)c3c(c2)C=CC(C)(C)O3)c1O`, the MIC came to 30 µg/mL. To `CC(C)C1=C(O)C(=O)C2=C(C1=O)[C@H](O)C[C@H]1C(C)(C)CCC[C@]21C` [HORMINONE] belongs 25 µg/mL; to `COc1cc(-c2ccccc2)nc2ccccc12`, 16 µg/mL. As to `CC(C)C1=C(O)C(=O)C2=C(C1=O)[C@H](O)[C@@H](O)[C@H]1C(C)(C)CCC[C@]21C`, the minimal inhibitory concentration (MIC) was found to be 25 µg/mL.

Consider `CC(=O)[C@]1(O)C(C)=C(C)C(=O)[C@@]12CC[C@](C)(CCC[C@H](C)CCC[C@H](C)CCCC(C)C)O2`, for which the MIC is 30 µg/mL.

Take `CC(=O)NCCc1c2c(c3nccc4c3c1Nc1ccccc1-4)OCS2` [LISSOCLINIDINE]: the MIC was determined as 17 µM. `C[C@@H]1C[C@H](C)C(=O)/C=C/C2[C@@H](O)C3OC4=C(C(=O)O[C@@]42C[C@H]3C)C1=O` (single isomer, unassigned; (-)): the MIC came out at 7.2 µM. To `C/C=C(C)/C=C(\C)C(O)C(C)[C@H](O)[C@@H](O)[C@H]1C/C=C\C=C\[C@H](O)C[C@@H](O)[C@H](C)c2nc(cs2)/C=C(\CCCCCC)C(=O)O1` (some centres not stated) [THUGGACIN A] belongs 8 µg/mL. In the case of `CSc1cnc2c3c(nc4ccccc4c13)C(CCNC(C)=O)=CC2=O` [ISODIPLAMINE] it was 17 µM. To `COc1ccc(CC(O)C(O)Cc2ccccc2)cc1` (configuration not stated) belongs 30 µg/mL; to `CSC1=C(CCNC(C)=O)c2nc3ccccc3c3ccnc(c23)C1=O` [DIPLAMINE], 17 µM; to `COc1c2ccoc2nc2c3c(ccc12)OCO3` [KOKUSAGINE], 16 µg/mL. Take `O=C(O)CCCCCCCCCCCC[C@@H]1C=CCC1` [CHAULMOOGRIC ACID]: the MIC turned out to be 16.8 µM.

For the molecule `CC(=O)NCCc1c2c3c(ccnc3c3ncsc13)-c1ccccc1N2` [KUANONIAMINE D], the MIC was 34 µM. To `CC[C@H](CC[C@@H](C)[C@H]1CC[C@H]2[C@@H]3CC=C4CC(=O)CC[C@]4(C)[C@H]3CC[C@]12C)C(C)C` [BETA-SITOSTENONE] belongs 39.5 µM. `CC(C)=CCc1c(O)cc(O)c(C(=O)/C=C/c2ccccc2)c1O`: the MIC was determined as 0.05 µg/mL. Take `O=C1c2scnc2-c2nccc3c2c1nc1ccccc13` [KUANONIAMINE A]: the MIC amounted to 10.7 µM. To `CCCCCCC1=C(O)CC(CCCCC)OC1=O` (configuration not stated) [PSEUDOPYRONINES A] belongs 3.12 µg/mL; to `C/C=C(/NC(=O)c1csc(-c2csc(-c3ccc4c(n3)-c3csc(n3)C(C(C)(O)C(C)O)NC(=O)c3csc(n3)C(C(C)C)NC(=O)c3csc(n3)/C(=C/OC)NC(=O)C(C(C)O)NC(=O)c3csc-4n3)n2)n1)C(=O)OC` (configuration not stated) [NOCARDITHIOCIN], 0.025 µg/mL; to `COc1cc(C)c(C(=O)Oc2cc(C)c(C(=O)O)c(O)c2C)c(OC)c1C` [DIFFRACTAIC ACID], 15.6 µg/mL. To `O=C1c2c(O)ccnc2-c2nccc3c2c1nc1ccccc13` belongs 42 µM; to `c1cc2c[n+](c1)CCCCCCCCCCCCCCc1ccc[n+](c1)CCCCCCCCCCCC2` [CYCLOSTELLETAMINES D], 8 µg/mL.

(Values after ChEMBL document CHEMBL2203104, “Recent advances in antitubercular natural products” (Eur J Med Chem, 2012).)
